# Like-named read-outs stand apart in the source and are kept apart here.
# How the values were obtained:
# BHK21 = test: Toxicity of NAC-MTN vs CD-MTN and MTN, MTT (Example 9, EX042105); assay type: cell-based, hamster
# Procedure: (§1) FIG. 4. […] The relative toxicity of NAC-MTN was compared with MTN and CD-MTN in four cell lines, MCF7(breast cancer), COS7green monkey kidney (SV40 transformed), 3T3 (mouse fibroblast), and BHK21(hamster kidney). Cells were treated with identical amounts of MTN formulated as either NAC-MTN, MTN only, or poly-beta-cyclodextrin-sulfylbutylether(CD-MTN). After an incubation period, cell viability was assayed with MTT assay. The differences in toxicity between NAC-MTN and MTN or NAC-MTN and CD-MTN are shown as % difference. Greater percentage difference correlates to more reduction in relative NAC-MTN toxicity.
# (§2) MCF7, COS7, 3T3, and BHK21 cells were plated out in duplicate rows of equivalent cell density in 100ul final volume. Initial cell densities were 2000 cells/well.
# (§3) Preparing NAC-MTN, CD-MTN, and MTN only. Combined 180 ul of 0.05 mg/ml MTN with […] 0.1 mg/ml herring sperm genomic DNA (HSGDNA, Promega), 1500 ul of 2× DMEM media containing 20% FBS to give 3.0 ml final volume and 12% final drug loading in the dsDNA. For MTN only, 180 ul of MTN was combined with 1320 ul H2O and 1500 ul 2× DMEM. […]
# (§4) Aspirated media in plate and replaced with 50 ul of 0.5 mg/ml MTT in 1× media, incubated 3 hours, aspirated, air dried 5 min and dissolved in 100 ul of isopropyl, read OD at A570. […]
# [1] = In vivo MTN distribution in organs after single i.v. dose (Example 15, EX102005); design: species or system mice; conditions: iv, 0.075 mg MTN per mouse i.v.
# Procedure: Procedure: Prior to formulation of MTN with carrier, the DNA carrier was standardized and assayed for loading limits with MTN by absorbance spectrometry. […] Herring sperm […] […] One milliliter (1 ml) of each homogenate was then transferred to a 1.7 ml centrifuge tube and centrifuged for 10 min at 10000 rcf. Supernatants were removed and fluorescence of 0.3 ml of samples was read at 620/680 nm s=50. […] Total MTN was calculated by converting fluorescence data to mg/ml MTN using a MTN standard curve. The mg/ml MTN was then multiplied by total vol. homogenate to obtain total MTN per organ.
# [2] = in vivo, iv
# Procedure: (§5) Differential targeting and distribution of NAC-MTN or MTN in major organs of the mouse. NAC-MTN or MTN was administered intravenously to mice and detected in major organs after 24 hours. […] Total MTN in tissues was quantified by MTN fluorescence, normalized against total tissue weight, and reported as MTN mg/g tissue.
# (§6) Mice n=2, were injected i.v. with repeated dose of either NAC-MTN or MTN alone. MTN administered was the same for each mouse.
# (§7) A 0.4 ml volume of each NAC-MTN or MTN formulation was prepared for injection in HBSS or H2O (Hanks Buffered Saline, Sigma-Aldrich) as indicated below. For NAC-MTN injection, 45 ul 10 mg/ml MTN was diluted first in 325 ul of HBSS solution, then 180 ul of herring sperm DNA (HSDNA, 50 mg/ml stock neutralized, 0.2 um filtered) was added to give a turquoise blue color. […] In MTN injection, 45 ul 10 mg/ml MTN was diluted in 385 ul of H2O.
# (§8) On day 1, white mice, n=2, 24 g each, were tail vein injected by a micro-catheter with 0.16 ml at 14:50 or 0.15 ml at 15:30, respectively of either NAC-MTN or MTN. A second injection was followed at 17:00 and 16:50 of 0.2 ml each of NAC-MTN or MTN. To quantify total MTN retained, mouse urine was collected after 1st and 2nd injection. Total MTN was assayed in mouse urine immediately after 1st injection and second injection by reading MTN fluorescence 620/680 s=50 of a 0.2 ml sample in a styrene well, bottom read. […] A third dose of 0.2 ml was given the next morning, 22 hours after 1st injection (day 2), of either NAC-MTN or MTN. […] Twenty four hours after first injection (day 2), mice were sacrificed and MTN assayed in major organs. The liver, kidneys, heart, and lung were homogenized at high speed 50,000 rpm, and treated with 1% SDS (sodium dodecyl sulfate). The homogenates were frozen twice and centrifuged for 30 minutes at 14000 rcf.
# [3] = In vivo MTN distribution in organs and recovery in urine after multiple i.v. dosing (Example 16, EX102205)
# Procedure: as §5, §6, §7, §8
# 3T3 = test: Toxicity of NAC-MTN vs CD-MTN and MTN, MTT (Example 9, EX042105); assay type: cell-based, mouse
# Procedure: as §1, §2, §3, §4
# [4] = intravenous administration; cited from earlier work
# NIH3T3 = test: Effect of plating time on uptake of NAC-MTN and MTN, fluorescence (Example 11); assay type: cell-based, mouse; conditions: cells treated <1 hour after plating
# Procedure: The effect of plating time on the differential rates of uptake between NAC-MTN and MTN were assayed in cells treated <1 hour and 24 hours after plating.
# On day 1, MCF7, COS7, 3T3, and BHK21 cells were plated out in a standard tissue culture plate. After incubation of 20 minutes samples were added to cells in rows A, C, E, and G. Cells were incubated at 37C in a standard atmosphere of 5%CO2.
# On day 2, samples were added to rows D, F, and H and the fluorescence was obtained EX620/EM680 S=80. Samples were removed from A,C,E and G, replaced with media and fluorescence read again. On day 2 observed significant drug toxicity in cells of rows A,C, E, G. Sample addition was postponed in row B since MCF7 were not yet confluent.
# On day 3, added samples to cells in row B containing confluent MCF7's, removed samples from rows D, F, and H replaced with media and read fluorescence.
# Fluorescence data from cells taken after removal of media was used to quantitate total MTN retained in the cells. Fluorescence data were converted to mg/ml MTN using a standard curve prepared with free MTN or NAC-MTN.
# The percentage difference in fluorescence between cells treated with NAC-MTN or MTN alone was used to compare relative drug uptake.
# [5] = 2 uM final MTN, MTT 48 hours after adding samples
# [6] = three i.v. doses, 24 hours after first injection
smiles,measurement,setting,value
"O=C1c2c(O)ccc(O)c2C(=O)c2c(NCCNCCO)ccc(NCCNCCO)c21 [MTN, mitoxantrone]",% tox. relative to media only,BHK21; [5],51.76%
same,toxicity (est.),"BHK21; after 20-24 hour incubation with MTN, 2 uM",~50%
same,concentration at 1 h,"[1]; heart, read-out: Density of MTN in tissue: Heart",96000 ng/g
same,concentration at 1 h,"[1]; kidney, read-out: Density of MTN in tissue: Kidney",49000 ng/g
same,concentration at 1 h,"[1]; liver, read-out: Density of MTN in tissue: Liver",10000 ng/g
same,concentration at 1 h,"[1]; lung, read-out: Density of MTN in tissue: Lung",43000 ng/g
same,toxic effects in mouse,[2],Neither mouse showed any toxic effects
same,MTN % dose recov. (urine),[3]; Collect Time 0-2 hr,2.9%
same,MTN Recov. (urine),"[3]; Collect Time 0-2 hr, dose 0.18 mg (NAC-MTN) or 0.17 mg (MTN) at 0 hr",0.0049 mg
same,MTN % dose recov. (urine),[3]; Collect Time 3-12 hr,12%
same,MTN Recov. (urine),"[3]; Collect Time 3-12 hr, dose 0.225 mg at 3 hr",0.0279 mg
same,MTN % dose recov. (urine),[3]; Collect Time 12-24 hr,13%
same,MTN Recov. (urine),"[3]; Collect Time 12-24 hr, dose 0.225 mg at 22 hr",0.0297 mg
same,MTN in Heart,[3]; [6],0.033 mg/g tissue
same,MTN in Kidney,[3]; [6],0.26 mg/g tissue
same,MTN in Liver,[3]; [6],0.077 mg/g tissue
same,MTN in Lung,[3]; [6],0.027 mg/g tissue
same,MTN in Kidney,"[3]; three i.v. doses, 24 hours after first injection, listed as MTN only",0.261 mg/g tissue
same,% tox. relative to media only,3T3; [5],37.57%
same,toxic effect,"3T3; after 24 hours, 2 uM MTN",no toxic effect
same,elimination half life,[4],12 days
same,FLUOR (MTN fluorescence in cells),NIH3T3,18530
